target: EGR-1 (Homo sapiens, UniProt P18146); test: EGR-1 DNA binding activity assay (EDBA); parameters: made in house; conditions: EGR-1 DNA binding inhibitory activity; EGR-1 overexpressing cell lysate; absorbance at 450 nm; compound concentration not given
Description: In this experiment, the inhibitory effect of the compounds of the present invention on EGR-1 binding activity was evaluated using an EGR-1 DNA binding activity assay (EDBA).
Single-stranded sense and antisense oligonucleotides of the following EGR-1 binding sequence (EBS) were prepared by outsourcing to Bioneer Co., Ltd. (Daejeon, Korea). In this case, the 5'-end of the sense oligonucleotide was labeled with biotin. The sense and antisense oligonucleotides were heated at 95 °C for 5 minutes and then left overnight at room temperature to hybridize the sense and antisense oligonucleotides. Hereinafter, the hybridized sense and antisense oligonucleotides are referred to as biotin-EBS. • Sense sequence: biotin-5'-[…]-3' • Antisense sequence: 5'-[…]-3'
Avidin protein was coated on a 96-well plate (purchased from Thermo Fisher Scientific), and biotin-EBS was added to the plate at a concentration of 0.5 pmol/50 µL/well, followed by reaction at 37 °C for 1 hour to allow biotin-EBS oligonucleotide to be attached to the plate. After washing three times with phosphate buffer saline containing 0.05% Tween 20 (PBS/Tween 20) to remove unattached biotin-EBS oligonucleotides, 200 µL of PBS/Tween 20 solution containing 2% bovine serum albumin (BSA) was added to each well, followed by reaction at 37 °C for 1 hour to block the surface of the plate where no oligonucleotide was attached.
The solution containing the sample compound and the EGR-1 protein was added to the biotin-EBS oligonucleotide coated plate prepared in step (2).
The compound sample (1 µL) was reacted with the EGR-1 overexpressing cell lysate containing 10 mM Tris, pH 7.5, 50 mM KCl, 2% BSA and 8% glycerol at room temperature for 30 minutes, and then added to a reaction well coated with biotin-EBS and further reacted at room temperature for one hour. After washing three times with PBS/Tween 20 solution, an EGR-1 antibody was added to the PBS solution supplemented with 2% BSA and 5 mM NaCl in an amount of 50 µL per each well. The mixture was incubated at room temperature for one hour, washed three times with PBS/Tween 20 solution, and then treated with horseradish peroxidase-conjugated secondary antibody (Goat anti-rabbit IgG antibody, Cell Signaling Technology company, Danvers, Mass., USA) diluted by 1:1000 at room temperature for one hour. After washing five times with PBS/Tween 20 solution, a substrate tetramethylbenzidine solution was added to each well in an amount of 50 µL. After reacting for 5 minutes, the reaction was stopped by adding 100 µL of 2 N sulfuric acid solution. The DNA binding inhibitory activity of EGR-1 was measured by absorbance at 450 nm according to Equation 1 below. EGR-1 DNA binding inhibitory activity (%) = 100−{(As/Ap)×100} [formula]
As: absorbance of a sample prepared by reacting an EGR-1-overexpressing cell lysate with the compound.
Ap: absorbance of the sample treated only with EGR-1-overexpressing cell lysate.

EGR-1, sequence (P18146 whole entry): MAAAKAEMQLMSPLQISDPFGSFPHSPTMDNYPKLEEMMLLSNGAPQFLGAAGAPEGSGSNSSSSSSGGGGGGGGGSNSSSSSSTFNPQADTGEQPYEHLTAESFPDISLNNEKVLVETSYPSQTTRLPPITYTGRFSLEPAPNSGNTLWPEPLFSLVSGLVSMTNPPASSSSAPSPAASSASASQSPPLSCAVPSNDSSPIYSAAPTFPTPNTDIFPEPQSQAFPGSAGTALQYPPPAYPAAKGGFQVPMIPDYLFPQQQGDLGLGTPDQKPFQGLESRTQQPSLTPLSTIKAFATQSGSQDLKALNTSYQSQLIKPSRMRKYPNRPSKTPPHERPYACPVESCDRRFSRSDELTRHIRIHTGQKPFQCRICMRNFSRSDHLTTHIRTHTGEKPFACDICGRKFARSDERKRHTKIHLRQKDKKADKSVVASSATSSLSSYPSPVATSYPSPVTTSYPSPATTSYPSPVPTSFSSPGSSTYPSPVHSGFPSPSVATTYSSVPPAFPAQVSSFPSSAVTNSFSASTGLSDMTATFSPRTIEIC

SMILES	Inhibition Rate (%)
NNC(=S)Nc1cccc(C(F)(F)F)c1 [Compound 1, N-(3-(trifluoromethyl)phenyl)hydrazinethioamide]	23.60%
NNC(=S)Nc1ccc(F)cc1 [Compound 2, N-(4-fluorophenyl)hydrazinethioamide]	25.70%
NNC(=S)Nc1ccc(Br)cc1 [Compound 3, N-(4-bromophenyl)hydrazinethioamide]	20.73%
N#Cc1ccc(NC(=S)NN)cc1 [Compound 4, N-(4-cyanophenyl)hydrazinethioamide]	16.27%
NNC(=S)Nc1ccc(C(F)(F)F)cc1 [Compound 5, N-(4-(trifluoromethyl)phenyl)hydrazinethioamide]	6.33%
CCNC(=S)NN [Compound 6, N-ethylhydrazinethioamide]	27.00%
CC(C)NC(=S)NN [Compound 7, N-isopropylhydrazinethioamide]	23.33%
CC(C)CNC(=S)NN [Compound 8, N-isobutylhydrazinethioamide]	38.73%
NNC(=S)NC(=O)c1ccccc1 [Compound 9, N-(hydrazinocarbonothioyl)benzamide]	42.17%
NNC(=S)NCc1ccccc1 [Compound 10, N-benzylhydrazinethioamide]	35.47%
Cc1cccc(NC(=S)NN)c1 [Compound 11, N-(m-tolyl)hydrazinethioamide]	18.67%
O=C1Nc2ccc(F)cc2/C1=N/NC(=S)Nc1ccccc1 [Compound 12, (Z)-2-(5-fluoro-2-oxoindolin-3-ylidene)-N-phenylhydrazinethioamide]	28.97%
O=C1Nc2ccc(F)cc2/C1=N/NC(=S)Nc1cccc([N+](=O)[O-])c1 [Compound 13, (Z)-2-(5-fluoro-2-oxoindolin-3-ylidene)-N-(3-nitrophenyl)hydrazinethioamide]	25.57%
O=C1Nc2ccc(F)cc2/C1=N/NC(=S)Nc1ccc(F)cc1 [Compound 14, (Z)-2-(5-fluoro-2-oxoindolin-3-ylidene)-N-(4-fluorophenyl)hydrazinethioamide]	17.80%
O=C1Nc2ccc(F)cc2/C1=N/NC(=S)Nc1ccc(Br)cc1 [Compound 15, (Z)-N-(4-bromophenyl)-2-(5-fluoro-2-oxoindolin-3-ylidene)hydrazinethioamide]	37.07%
N#Cc1ccc(NC(=S)N/N=C2\C(=O)Nc3ccc(F)cc32)cc1 [Compound 16, (Z)-N-(4-cyanophenyl)-2-(5-fluoro-2-oxoindolin-3-ylidene)hydrazinethioamide]	40.57%
O=C1Nc2ccc(F)cc2/C1=N/NC(=S)Nc1ccc(C(F)(F)F)cc1 [Compound 17, (Z)-2-(5-fluoro-2-oxoindolin-3-ylidene)-N-(4-(trifluoromethyl)phenyl)hydrazinethioamide]	25.57%

SMILES	Inhibition Rate (%)
O=C1Nc2c(F)cccc2/C1=N/NC(=S)Nc1ccc(F)cc1 [Compound 18, (Z)-2-(7-fluoro-2-oxoindolin-3-ylidene)-N-(4-fluorophenyl)hydrazinethioamide]	33.80%
O=C1Nc2c(F)cccc2/C1=N/NC(=S)Nc1ccc(Br)cc1 [Compound 19, (Z)-N-(4-bromophenyl)-2-(7-fluoro-2-oxoindolin-3-ylidene)hydrazinethioamide]	47.77%
N#Cc1ccc(NC(=S)N/N=C2\C(=O)Nc3c(F)cccc32)cc1 [Compound 20, (Z)-N-(4-cyanophenyl)-2-(7-fluoro-2-oxoindolin-3-ylidene)hydrazinethioamide]	44.93%
COc1ccc2c(c1)NC(=O)/C2=N\NC(=S)Nc1ccccc1 [Compound 22, (Z)-2-(6-methoxy-2-oxoindolin-3-ylidene)-N-phenylhydrazinethioamide]	51.33%
COc1ccc2c(c1)NC(=O)/C2=N\NC(=S)Nc1ccccc1OC [Compound 24, (Z)-2-(6-methoxy-2-oxoindolin-3-ylidene)-N-(2-methoxyphenyl)hydrazin-1-carbothioamide]	42.00%
COc1ccc2c(c1)NC(=O)/C2=N\NC(=S)Nc1ccc(C(F)(F)F)cc1 [Compound 26, (Z)-2-(6-methoxy-2-oxoindolin-3-ylidene)-N-(4-(trifluoromethyl)phenyl)hydrazinethioamide]	49.67%
CCNC(=S)N/N=C1\C(=O)Nc2cc(OC)ccc21 [Compound 27, (Z)-N-ethyl-2-(6-methoxy-2-oxoindolin-3-ylidene)hydrazinethioamide]	44.00%
COc1ccc2c(c1)NC(=O)/C2=N\NC(=S)Nc1cccc(C)c1 [Compound 28, (Z)-2-(6-methoxy-2-oxoindolin-3-ylidene)-N-(m-tolyl)hydrazinethioamide]	28.67%
Cc1ccc2c(c1)/C(=N/NC(=S)Nc1ccccc1)C(=O)N2 [Compound 29, (Z)-2-(5-methyl-2-oxoindolin-3-ylidene)-N-phenylhydrazinethioamide]	27.50%
Cc1ccc2c(c1)/C(=N/NC(=S)Nc1cccc([N+](=O)[O-])c1)C(=O)N2 [Compound 30, (Z)-2-(5-methyl-2-oxoindolin-3-ylidene)-N-(3-nitrophenyl)hydrazinethioamide]	32.70%
COc1ccccc1NC(=S)N/N=C1\C(=O)Nc2ccc(C)cc21 [Compound 31, (Z)-N-(2-methoxyphenyl)-2-(5-methyl-2-oxoindolin-3-ylidene)hydrazinethioamide]	42.73%
Cc1ccc2c(c1)/C(=N/NC(=S)Nc1cccc(C(F)(F)F)c1)C(=O)N2 [Compound 32, (Z)-2-(5-methyl-2-oxoindolin-3-ylidene)-N-(3-(trifluoromethyl)phenyl)hydrazinethioamide]	40.93%
Cc1ccc2c(c1)/C(=N/NC(=S)Nc1ccc(F)cc1)C(=O)N2 [Compound 33, (Z)-N-(4-fluorophenyl)-2-(5-methyl-2-oxoindolin-3-ylidene)hydrazinethioamide]	37.77%
NC(=S)N/N=C1\C(=O)Nc2ccc(Br)cc21 [Compound 34, (Z)-2-(5-bromo-2-oxoindolin-3-ylidene)hydrazinethioamide]	46.00%
O=C1Nc2cccc(Br)c2/C1=N/NC(=S)Nc1cccc([N+](=O)[O-])c1 [Compound 35, (Z)-2-(4-bromo-2-oxoindolin-3-ylidene)-N-(3-nitrophenyl)hydrazinethioamide]	55.33%
O=C1Nc2cc(Br)ccc2/C1=N/NC(=S)Nc1cccc([N+](=O)[O-])c1 [Compound 36, (Z)-2-(6-bromo-2-oxoindolin-3-ylidene)-N-(3-nitrophenyl)hydrazinethioamide]	46.33%
